The values below are quoted from earlier work in patent publication US20110142766A1, “Effervescent Multi-Vitamin Formulation and Methods of Use Thereof” (priority 2009, published 2011).

Structures are written as SMILES.

The test system of one series is vision loss. Particulars: group treated with zinc compared with a group treated with a placebo.
The subject of series [1] is age-related macular degeneration.

As to `[Zn]` [zinc], the “reduction in vision loss” value with vision loss is listed as “statistically significant reduction in vision loss”. Further, the “reduction of risk of (central) vision loss” value in series [1] (people at high risk for developing advanced AMD) is “about 11%”. In series [1] (people at high risk for developing advanced AMD (intermediate AMD, or advanced AMD in one eye only)), the “reduction of risk of developing advanced stages of AMD” value is given as “about 21%”.
